Tests used:
dengue virus type 2 = assay: Antiviral activity against Dengue virus 2 infected in syrian hamster BHK-21 cells assessed as inhibition of plaque formation pretreated with compound for 45 mins followed by viral infection for 24 hrs; assay type: functional; settings: BHK-21, 24.75 h, time 1485 min
dengue virus type 4 = assay: Antiviral activity against Dengue virus 4 infected in syrian hamster BHK-21 cells assessed as inhibition of plaque formation pretreated with compound for 45 mins followed by viral infection for 24 hrs; assay type: functional; settings: BHK-21, 24.75 h, time 1485 min
Kunjin virus = assay: Antiviral activity against Kunjin virus; assay type: functional, organism-based; settings: West Nile virus
[1] = Cytotoxicity against mouse BaF3 cells expressing BCR-ABL assessed as cell viability; assay type: toxicity, cell-based
dengue virus type 3 = assay: Antiviral activity against Dengue virus 3 infected in syrian hamster BHK-21 cells assessed as inhibition of plaque formation pretreated with compound for 45 mins followed by viral infection for 24 hrs; assay type: functional; settings: BHK-21, 24.75 h, time 1485 min
dengue virus type 1 = assay: Antiviral activity against Dengue virus 1 infected in syrian hamster BHK-21 cells assessed as inhibition of plaque formation pretreated with compound for 45 mins followed by viral infection for 24 hrs; assay type: functional; settings: BHK-21, 24.75 h, time 1485 min

IC90 (dengue virus type 2): 20 µM
IC90 (dengue virus type 4): 20 µM
EC50 (Kunjin virus): > 20 µM
IC90 (dengue virus type 3): 20 µM
IC90 (dengue virus type 1): 20 µM
SMILES: NC(=O)c1cccc(-c2cc(Nc3ccc(OC(F)(F)F)cc3)ncn2)c1
IC50 [1]: > 10 µM

— ChEMBL document CHEMBL6134836, “Medicinal Chemistry: A Key Driver in Achieving the Global Sustainable Development Goals” (J Med Chem, 2025)
